# Measurements: US4216221A, “1,3-Disubstituted (2-thio)ureas” (U C B, Societe Anonyme, priority 1977, dated 1980)
# Read-outs that look alike come from different tables or passages of the source.
# How the values were obtained:
# [1] = spinal fixation time (spinal section 35 minutes after onset of asymmetry); format: in vivo, rat
# Excerpt: (b) The action on mnemic processes is also shown by the reduction of the spinal fixation time, a test which has been described in literature (T. J. CHAMBERLAIN et al., J.Neuro-Physiol.26, (1963,no. 4), 662-673; C. GIURGEA and F. MOURAVIEFF-LESUISSE, Arch.Int.Pharmacodyn.Therap.191, (1971,no. 2), 279) as an elementary memory model and which provides pharmacological reactivity in good correlation with clinical physiopathology. In the rat, after unilateral lesion of the cerebellum, there is a postural asymmetry of the hind paws. This asymmetry may persist, even after spinal section, if the animal has passed a sufficiently long time in this position.
# This time, which is called the spinal fixation time, is 45 minutes under the experimental conditions applied here.
# On the other hand, if the spinal section is performed before the expiry of this period of time, for example 35 minutes after the onset of the asymmetry, the latter disappears.
# No animal treated with placebos retains asymmetry under these conditions.
# Inversely, any product which allows the rats to retain the asymmetry (thus effecting spinal fixation) when the spinal section is performed after 35 minutes, is considered to be active.
# The compounds were all tested at a dosage of […]. The minimum active doses were not sought, except for compound No. 1 and for piracetam. […] By "number of animals" is to be understood the number of animals which responded positively to the test, in relation to the number of animals tested at the indicated dose: […]
# [2] = Toxicity by intraperitoneal administration (Irwin's test); format: in vivo; settings: for Dose mg/kg (dose which brings about the death of one animal out of eight in Irwin's test): mouse
# Excerpt: The compounds tested have a remarkably low toxicity.
# *Dose which brings about the death of one animal out of eight in Irwin's
# test (S. IRWIN, Gordon Research Conference on Medicinal Chemistry, Colby
# Junior College, New London, 1959).
# [3] = active avoidance test (memory retention; paw withdrawal reaction threshold); format: in vivo, rat; settings: for minimal effective dose: sc
# Excerpt: The pressure at which the withdrawal reaction takes place is called the reaction threshold. This threshold is expressed by the figure read on a scale graduated in cm of the apparatus used (Analgesy-meter Ugo Basile, Milan) and thus corresponds to the minimum pressure which brings about withdrawal when applied to the animal's paw.
# [4] = Protection against aggressions of the hypoxic type (mortality induced by oxydipentonium chloride); format: in vivo, mice; settings: Mus musculus, ip, 1 h, read-out: Proportion of survivors, Animals treated
# Procedure: Protection against aggressions of the hypoxic type was shown by a reduction of mortality induced by a curarizer, the action time of which is short, namely oxydipentonium chloride (Brevatonal). At the doses used, this curarizer brings about respiratory depression which, in turn, gives rise to a hypoxi-hypercapnic syndrome.
# A compound capable of protecting the brain during this short period of hypoxia ensures survival. The compounds are administered to groups of 10 mice one hour before the injection of the curarizer. At the same time, a control group of 10 mice received physiological salt solution before the curarizer. This test has also been developed in our laboratories (see S. LEVIS et al., Arch.Int.Pharmacodyn.Therap.93, (1953,no. 1), 46-54).
# [5] = Toxicity when administered intravenously or orally (LD50); settings: in vivo, rat
# Excerpt: Furthermore, in the rat, the compounds tested also have a low toxicity when administered intravenously or orally, as shown by the results given in the following Table V: […]
# [6] = ip, 35 min, rat, intraperitoneal, 0.32 mM/kg, read-out: Number of animals which responded positively to the test, in relation to the number of animals tested (converted)
# [7] = rat, subcutaneous, tested 24 hours later, read-out: Active dose mM/kg (minimum dose lowering the stimulus below 11 graduations; mM = millimole)
# [8] = rat, subcutaneous, tested 24 hours later, read-out: Active dose mg/kg (minimum dose lowering the stimulus below 11 graduations)
# [9] = Rattus norvegicus, ip, read-out: Active dose mM/kg (minimum active dose)
# [10] = Rattus norvegicus, ip, read-out: Active dose mg/kg (minimum active dose)
# [11] = iv, i.v., read-out: LD50 mg/kg (rat)
# [12] = iv, i.v., read-out: LD50 - mM/kg
# [13] = po, per os, read-out: LD50 mg/kg (rat)
# [14] = po, per os, read-out: LD50 - mM/kg
Structure (SMILES),"responders at 320 µM, 320 µmol/kg [1, 6] [%]",Dose mM/kg - mouse (dose which brings about the death of one animal out of eight in Irwin's test) [2] [mM/kg],Dose mg/kg (dose which brings about the death of one animal out of eight in Irwin's test) [2] [mg/kg],"minimal effective dose [3, 7] [µmol/kg]","minimal effective dose [3, 8] [mg/kg]",also measured
"O=C(NCCCN1CCCC1=O)NCCCN1CCCC1=O [compound 23, 1,3-bis[3-(2-oxo-pyrrolidino)propyl]-urea]",50,> 3,931.2,,,
"O=C(NCCN1CCCC1=O)NCCN1CCCC1=O [compound 20, 1,3-bis[2-(2-oxo-pyrrolidino)ethyl]-urea]",42.9,> 3,> 846,0.05,0.014,
"CC1C(=O)N(CNC(=O)NCN2CC(c3ccc(Cl)cc3)C(C)C2=O)CC1c1ccc(Cl)cc1 (stereo not shown) [Compound No. 7, 1,3-bis[(4-p-chlorophenyl-3-methyl-2-oxo-pyrrolidino)methyl]-urea]",66.7,> 3,> 1509,5,1.01,
"CC1CCC(=O)N1CNC(=O)NCN1C(=O)CCC1C (stereo not shown) [Compound No. 8, 1,3-bis[(5-methyl-2-oxo-pyrrolidino)methyl]-urea]",57.1,> 3,> 746,5,1.41,
"O=C(NCN1CCCC1=O)NCN1CCCC1=O [Compound No. 1, 1,3-bis[(2-oxo-pyrrolidino)methyl]-urea]",,> 6,> 1530,0.01,0.0025,"minimal effective dose [1, 9]: 100 µmol/kg; minimal effective dose [1, 10]: 25 mg/kg; responders at 100 µM, 25 mg/kg ([1]; ip, 35 min, rat, intraperitoneal, 0.1 mM/kg (25.0 mg/kg), read-out: Number of animals which responded positively to the test, in relation to the number of animals tested (converted)): 63.6%; activity relative to piracetam (spinal fixation time) ([1]; rat, intraperitoneal): more active than piracetam; responders at 32 µM, 32 µmol/kg [4]: 70%; responders at 100 µM, 100 µmol/kg [4]: 60%; responders at 2.5 mg/kg [4]: 33.3%; LD50 [5, 11]: > 5600 mg/kg; LD50 [5, 12]: > 22000 µmol/kg; LD50 [5, 13]: > 10000 mg/kg; LD50 [5, 14]: > 39000 µmol/kg"
"O=C(NCN1CCCCCC1=O)NCN1CCCCCC1=O [Compound No. 4, 1,3-bis[(hexahydro-2-oxo-1H-azepin-1-yl)methyl]-urea]",66.7,3,930,0.005,0.0015,
"CC1CCN(CNC(=O)NCN2CCC(C)C2=O)C1=O (stereo not shown) [compound 34, 1,3-bis[(3-methyl-2-oxo-1-pyrrolidino)methyl]-urea]",50,> 6,> 1692,,,
"O=C1CCC(c2ccc(Cl)cc2)CN1CNC(=S)NCN1CC(c2ccc(Cl)cc2)CCC1=O (stereo not shown) [compound 24, 1,3-bis[(5-p-chlorophenyl-2-oxo-piperidino)methyl]-2-thiourea]",42.9,> 3,> 1039,,,
"CC1CC(=O)N(CNC(=O)NCN2C(=O)CC(C)C2C)C1C (stereo not shown) [compound 14, 1,3-bis[(4,5-dimethyl-2-oxo-pyrrolidino)methyl]-urea]",,> 3,930,10,3.1,"responders at 100 µM, 100 µmol/kg ([4]; mice, intraperitoneal, 0.1 mM/kg, one hour before the curarizer, control animals 3/20 (1), 1/10 (2, 18, 26), 0/10 (14, 32), 2/10 (28)): 50%"
CCC(CNC(=O)NCC(CC)N1CCCC1=O)N1CCCC1=O (stereo not shown) [compound 22],71.4,> 3,> 1014,0.02,0.0067,
"NC(=O)CN1CCCC1=O [piracetam, 2-oxo-1-pyrrolidineacetamide, reference compound]",,,,,,"responders at 320 µM, 320 µmol/kg ([1]; Rattus norvegicus, ip, 35 min, read-out: Number of animals which responded positively to the test, in relation to the number of animals tested): 55.6%; minimal effective dose [1, 9]: 320 µmol/kg; minimal effective dose [1, 10]: 45 mg/kg; responders at 320 µM, 320 µmol/kg [4]: 10%; responders at 142 mg/kg [4]: 40%; responders at 454 mg/kg ([4]; mice, intraperitoneal, 454 mg/kg (3.2 mM/kg), one hour before the curarizer, control animals 1/10): 80%; minimal effective dose ([3]; Rattus norvegicus, 24 h, read-out: Active dose mM/kg (minimum dose lowering the stimulus below 11 graduations; mM = millimole)): 2.5 µmol/kg; minimal effective dose ([3]; Rattus norvegicus, 24 h, read-out: Active dose mg/kg (minimum dose lowering the stimulus below 11 graduations)): 3.5 mg/kg; degree of retention ([3]; rat, compared with control animals): significant degree of retention; LD50 [5, 11]: > 8000 mg/kg; LD50 [5, 12]: > 56000 µmol/kg; LD50 [5, 13]: > 10000 mg/kg; LD50 [5, 14]: > 70000 µmol/kg"
